Results taken from the SangsterLogP compilation.

Experiment: method code SF-AS, from DOI: 10.2298/jsc0810967p
Settings: pH 7.4

logD | SMILES
5.05 | Cc1cc2ncn(Cc3cccc(Cl)c3)c2cc1C
4.85 | Cc1cccc(Cn2cnc3cc(C)c(C)cc32)c1
4.28 | COc1cccc(Cn2cnc3cc(C)c(C)cc32)c1
4.5 | Cc1cc2ncn(Cc3cccc(F)c3)c2cc1C
